Reference: patent publication US20080269317A1, “Compounds for Covalent Binding to MD-2 and Effect on the Immune Response” (priority 2005, published 2008)

Experiments:
MD-2 [1] = target: T1, MD-2 (Homo sapiens, UniProt Q9Y6Y9); experiment: Covalent binding to MD-2: fluorescence after GdnHCl denaturation and acetone precipitation, with or without iodoacetamide blocking
T1 construct: made in house; host or cells: Escherichia coli
T1 sequence (Q9Y6Y9 19-160): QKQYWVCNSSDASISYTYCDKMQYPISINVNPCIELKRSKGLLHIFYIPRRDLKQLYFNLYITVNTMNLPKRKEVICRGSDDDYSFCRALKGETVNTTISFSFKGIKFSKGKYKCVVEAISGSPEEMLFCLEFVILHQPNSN
Description: In the second example of the invention we show, that binding of the compound to MD-2 is irreversible, therefore after binding to MD-2, compound remains permanently bound to the protein and therefore prevent binding of LPS or other ligands to MD-2.
The compounds with features mentioned above covalently bind to MD-2. The binding experiment was performed by adding to the concentration of MD-2 two times concentration excess of N-(1-pyrene) maleimide and incubated one hour at room temperature in the dark. The compound, which nonspecifically (noncovalently) bound to MD-2 was released from the protein by denaturation of the protein in 6 M guanidinium hydrochloride (GdnHCl). To the dissolved denatured protein we added five volumes of chilled (−20° C.) acetone and incubated for additional 60 min at −20° C. Then we centrifuged for 10 min at 13 000 rpm. […] The precipitate was dissolved in […] of 6 M GdnHCl and fluorescence emission spectrum was measured with excitation at 338 nm (FIG. 2). […] Binding of iodoacetamide inhibited binding of a compound to free cysteine residue on MD-2, which can be detected by lower fluorescence intensity of the compound.
We compared the fluorescence of MD-2, incubated with N-(1-pyrene) maleimide and to MD-2, with said compound, where we have previously added iodoacetamide for blocking free cysteine residues.

MonoMac6 cells [2] = experiment: Activation of MonoMac6 cells without LPS, monitored through secreted TNF-alpha (ELISA); assay type: cell-based, human; details: different concentrations of IAANS, no LPS; supernatant after 20 hours
From the text: The activation of the host innate immune system can have an important role for the treatment of diseases such as microbial infections, cancer and other diseases, where the participation of the innate immunity system is important. It is important that the compound, which activates the innate immune system has no other effects. If the compound activates the cells of the innate immunity, the same cytokines are secreted as by the activation with LPS, so the same assay can be used. For the assay we have used human monocytic cells MonoMac6. Into the 96-well plate we seeded 1×10^5 cells per well in the media for MonoMac6 cells. We added 50 ng/ml of phorbol 12-myristate […] (Sigma), which is needed for differentiation of cells into macrophages. Then we added different concentrations of IAANS and incubated. 20 hours after the stimulation we took the cell supernatants, centrifuged for 3 min at 13 000 rpm and performed ELISA test for TNF-alpha.
To MonoMac6 cells we added different concentrations of IAANS. […] Cells secreted TNF-alpha, which stimulates the innate immune response, which is important for the acquired immunity at vaccination or treatment of disease such as cancer, where the activation of host immune response is desirable. […]

MonoMac6 cells [3] = experiment: Inhibition of TNF-alpha synthesis (ELISA) in MonoMac6 cells stimulated with LPS; assay type: cell-based, human; details: different concentrations of IAANS, 1 hour, then 20 ng/ml LPS; supernatant after 20 hours
From the text: The effect of certain compound on the cell activation by LPS can also be detected by determination of the amount of cytokines, which are released by the cell activation. Addition of LPS to macrophage cells (or other cells, which normally express MD-2 and TLR4) causes the secretion of inflammatory cytokines such as TNF-alpha, IL-1, IL-8 . . . […] The amount of cytokines released into the media can be determined by the ELISA test. For the experiment we used monocytic cells MonoMac6. To 96-well plate we seeded 1×10^5 cells per well in media for MonoMac6 cells (RPMI with 10% FBS, nonessential aminoacids and OPI (both from Sigma)). 50 ng/ml of phorbol 12-myristate […] (Sigma) needed for differentiation into macrophages was added to cells. IAANS was added at different concentrations and incubated 1 hour, followed by the addition of 20 ng/ml LPS. 20 hours after the stimulation we took the supernatant, centrifuged it for 3 min on 13 000 rpm and performed the ELISA test for TNF-alpha.
To MonoMac6 cells, which express MD-2 and TLR4, we added different concentrations of IAANS and LPS and determined the concentration of TNF-alpha in media using the ELISA test.

MD-2 [4] = target: T1, MD-2; experiment: Binding to MD-2 monitored through the increase of the fluorescence (spectrofluorimeter); details: 100 nM MD-2 added to 200 nM compound in milliQ water, 25° C., time dependent
From the text: In the first example of the invention we used recombinant MD-2 produced in bacteria Escherichia coli to test the binding of the compounds, which contain a hydrophobic group and a group, which binds to the cysteine residue. This protein has biological activity as endogenous MD-2 and added protein enables response to LPS to cells lacking endogenous MD-2. We tested binding of compounds 2-(4′-(iodoacetamido)anilino)naphthalene-6-sulfonic acid (IAANS) and N-(1-pyrene)maleimide, which in addition to the above mentioned properties also have the additional feature of fluorescence, which makes them useful to show the principle of the invention. […] Change of the environment, which is a result of binding of the compound into the hydrophobic pocket, causes an increase of the fluorescence intensity of compounds, which is detected by measuring the emission fluorescence spectra using the spectrofluorimeter. […]
IAANS (Molecular Probes, USA) is an example of a compound with an alkylhalide group, which is reactive with a thiol group, an anilinonaphthalene group as a hydrophobic group and a sulfonic group as an anionic group. […] IAANS concentration was determined by measuring the absorbance at 326 nm in methanol (extinction coefficient at 326 nm in methanol is 27 000 cm^−1M^−1). […] Binding to MD-2 increases the fluorescence intensities of both compounds. […]

| Compound | effect of previous incubation with iodoacetamide on binding of N-(1-pyrene) maleimide to MD-2 (MD-2 [1]; five molar excess of iodoacetamide added beforehand to block free cysteine residues) | activation of MonoMac6 cells (secreted TNF-alpha) (MonoMac6 cells [2]) | inhibition of LPS dependent synthesis of TNF-alpha (MonoMac6 cells [3]) | change of the fluorescence intensity at emission maximum after addition of MD-2 (MD-2 [4]) | covalent (irreversible) binding to MD-2: emission spectrum preserved in 6 M GdnHCl (MD-2 [1]; two times excess of compound, one hour at room temperature, denaturation in 6 M GdnHCl, acetone precipitation, excitation 338 nm) |
| --- | --- | --- | --- | --- | --- |
| NC(=O)CI [iodoacetamide, reference compound] | inhibited binding of N-(1-pyrene) maleimide to MD-2 |  |  |  |  |
| O=C(CI)Nc1ccc(Nc2ccc3cc(S(=O)(=O)O)ccc3c2)cc1 [IAANS, 2-(4′-(iodoacetamido)anilino)naphthalene-6-sulfonic acid] |  | activated the cells in the concentration dependent manner | inhibited LPS dependent synthesis of TNF-alpha in a concentration-dependent manner | increase of the IAANS fluorescence after binding to MD-2 |  |
| O=C1C=CC(=O)N1c1ccc2ccc3cccc4ccc1c2c34 [N-(1-pyrene) maleimide, N-(1-pyrene)maleimide] |  |  |  | increase of the N-(1-pyrene) maleimide fluorescence after binding to MD-2 | irreversibly bound to MD-2 |
